In patent US20240197666A1, “DITERPENOID COMPOUNDS THAT ACT ON PROTEIN KINASE C (PKC)” (K-Gen Therapeutics, Inc., priority 2021, published 2024):
pIC50: −log10 of the molar value. Like-named read-outs stand apart in the source and are kept apart here.

Experiments:
A549 cell line = test: Proliferation of A549 (CellTiter Glo); assay type: cell-based; conditions: Homo sapiens, A549, 96 h, read-out: IC50 μM (A549 Cell Line)
Outline: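 Compound effect on proliferation was read as CellTiter Glo luminescence after 96 h exposure to a 3-fold dilution series (≤0.25% DMSO). A549 cells, which carry activating K-Ras, were plated at 1,000/well one day before dosing. IC50, relative IC50 and maximal inhibition were fitted from % inhibition versus DMSO control.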

Panc2.13 (Pancreatic) = test: Proliferation of Panc2.13; assay type: cell-based; conditions: for pIC50: read-out: IC50 Panc2.13 (Pancreatic)
Outline: (§1)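 Proliferation was measured in the K-Ras mutant pancreatic lines and in HL-60 and Namalwa cells. These were plated at densities set per line and left 24 h before compound was added. After 96 h with serially diluted compound, viability was read by CellTiter Glo and IC50 derived.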

KP-4 (Pancreatic) = test: Proliferation of KP-4; assay type: cell-based; conditions: read-out: IC50 KP-4 (Pancreatic)
Outline: as §1

HL-60 (Leukemia) = test: Proliferation of HL-60; assay type: cell-based; conditions: for pIC50: Homo sapiens, HL-60, read-out: IC50 HL-60 (Leukemia)
Namalwa (Lymphoma) = test: Proliferation of Namalwa; assay type: cell-based; conditions: for pIC50: read-out: IC50 Namalwa (Lymphoma)
Outline: as §1

Mino (Lymphoma) = test: Proliferation of Mino; assay type: cell-based; conditions: for pIC50: Homo sapiens, MINO, read-out: IC50 Mino (Lymphoma)
Outline: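 Luminescent ATP read-out (CellTiter Glo) after 96 h compound exposure gave % inhibition relative to DMSO-treated cells, from which IC50 was fitted. Seeding densities were line-specific, from 800 to 10000 cells/well. Potency across batches was normalised to reference compound K101.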

PANC1 cells = test: Sphere formation assay; assay type: cell-based; conditions: Homo sapiens, PANC-1, read-out: concentration exhibiting at least 50% inhibition on the sphere forming efficiency
Description: A group of diterpenoid compounds of the present disclosure were tested to assess their effects on blocking formation of spheres from cancer cell lines such as PANC1, a K-Ras mutant pancreatic cell line. Briefly, PANC1 cells were harvested, re-suspended as single cell suspensions, counted and seeded into Ultra Low Attachment Culture 96-well plate (Corning, Cat #3474) at 100 cells/well in 100 μl of complete media (with 10% FBS) containing 2% Matrigel (Corning, Cat #354234) and DMSO or compounds. Six replicates per condition were seeded. The seeded cells were placed in the 37° C. tissue culture incubator. 10 μl of low serum containing media (with 0.1% FBS) was added to each well every week. Spheres formed after 3-4 weeks were counted. Sphere forming efficiency was expressed as percentage of # of spheres/ # of cells seeded.

Panc2.13 tumors = test: Panc2.13 xenograft model, intra-tumoral injection; assay type: in vivo, mouse; conditions: for Tumor growth inhibition T/C: Day 45, seven daily IT injections, Nu/Nu mice; for tumor clearance: end of efficacy study, three mice per group, seven daily IT injections
Description: Immunodeficient (athymic) Nu/Nu mice were implanted at one flank subcutaneously with Panc2.13 pancreatic cancer cells. […] All groups tolerated drug treatments very well. […] Scabs formed after 1-2 weeks and the skin recovered with minimal scaring after 3-4 weeks. Tumor growth/re-growth on or near the injection site was monitored for up to 55 days. […] Tumor growth inhibition is calculated by dividing the group average tumor volume for the treated group by the group average tumor volume for the control group (TIC). A one-way ANOVA was performed to compare tumor volume among groups, and when a significant F-statistics (a ratio of treatment variance to the error variance) was obtained, comparisons between groups were carried out with Games-Howell test. All data were analyzed using GraphPad 5.0. P<0.05 was considered to be statistically significant.
A Mann-Whitney method was performed to analyze the tumor clearance rate comparing drug treated groups with the vehicle group at the end of the efficacy study. P<0.05 was considered to be statistically significant. Vehicle-injected tumors kept growing and there was no tumor clearance at the end point.

Row | SMILES | IC50 (A549 cell line) [µM] | ratio (IC50 of K101)/(IC50 of compound) Panc2.13 (Panc2.13 (Pancreatic)) | pIC50 (Panc2.13 (Pancreatic)) | pIC50 (KP-4 (Pancreatic)) | ratio (IC50 of K101)/(IC50 of compound) HL-60 (HL-60 (Leukemia)) | pIC50 (HL-60 (Leukemia)) | ratio (IC50 of K101)/(IC50 of compound) Namalwa (Namalwa (Lymphoma)) | pIC50 (Namalwa (Lymphoma)) | ratio (IC50 of K101)/(IC50 of compound) Mino (Mino (Lymphoma)) | pIC50 (Mino (Lymphoma)) | pIC50 (KP-4 (Pancreatic); 96 h) | pIC50 (PANC1 cells) | Tumor growth inhibition T/C (Panc2.13 tumors) | tumor clearance (Panc2.13 tumors) | pIC50 (Panc2.13 (Pancreatic); 96 h)
1 | CC1=C[C@H]2[C@@]3(O)[C@H](C)C[C@]4(OC(=O)[C@@H](N)CC5CCCCC5)[C@H]([C@@H]3C=C(CO)C[C@]2(O)C1=O)C4(C)C | 0.06 to 0.1 | 7.1 | 6.70 to 7.00 | 6.70 to 7.00 | 2.32 | 7.22 to 7.52 | 2.03 | 7.22 to 7.52 | 7.33 | 8.00 to 9.00 | – | – | – | – | –
2 | CC1=C[C@H]2[C@@]3(O)[C@H](C)C[C@]4(OC(=O)[C@@H](N)C5Cc6ccccc6C5)[C@H]([C@@H]3C=C(CO)C[C@]2(O)C1=O)C4(C)C | 0.06 to 0.1 | 5.82 | 6.70 to 7.00 | – | 1.79 | 7.22 to 7.52 | 1.6 | 7.22 to 7.52 | 5.5 | 7.52 to 8.00 | 6.22 to 7.00 | ≥ 6.82 | – | – | –
3 | CC1=C[C@H]2[C@@]3(O)[C@H](C)C[C@]4(OC(=O)[C@@H](N)[C@]56C[C@H]7C[C@H](C[C@H](C7)C5)C6)[C@H]([C@@H]3C=C(CO)C[C@]2(O)C1=O)C4(C)C | 0.001 to 0.01 | 71.7 | 7.52 to 8.00 | 8.00 to 9.00 | 16.2 | 8.00 to 9.00 | 18.2 | 8.00 to 9.00 | 52.2 | 8.00 to 9.00 | – | ≥ 7.30 | 3.3 | two out of three | –
4 | CC1=C[C@H]2[C@@]3(O)[C@H](C)C[C@]4(OC(=O)[C@H](N)CCCCCCc5ccccc5)[C@H]([C@@H]3C=C(CO)C[C@]2(O)C1=O)C4(C)C | 0.01 to 0.03 | 13.4 | – | 7.22 to 7.52 | 4.43 | 7.52 to 8.00 | 4.93 | 7.52 to 8.00 | 21.3 | 8.00 to 9.00 | – | ≥ 6.82 | 0 | – | 6.22 to 7.00
5 | CC1=C[C@H]2[C@@]3(O)[C@H](C)C[C@]4(OC(=O)[C@@H](N)CCCCCCc5ccccc5)[C@H]([C@@H]3C=C(CO)C[C@]2(O)C1=O)C4(C)C | 0.001 to 0.01 | 57.3 | 7.52 to 8.00 | 8.00 to 9.00 | 12.1 | 8.00 to 9.00 | 16.1 | 8.00 to 9.00 | 52.2 | 8.00 to 9.00 | – | ≥ 7.30 | – | one out of three | –
